Broadly, the pIC50 is −log10 of the IC50, conventionally taken in molar units.

The experiment concerns the target BTK enzyme (recombinant full-length BTK, hBTK) (Homo sapiens (Human), UniProt Q06187). Kind of experiment: Btk enzyme activity assay, LANCE TR-FRET. The settings on record: read-out: BTK binding IC50; 50 pM hBTK, 2 μM biotin-A5-peptide, 25 μM ATP; 60 minute compound & enzyme incubation. On the technique in general: In TR-FRET formats the signal depends on donor and acceptor labels being close together.

The structures appear in SMILES notation. pIC50: −log10 of the molar value.

Chain of BTK enzyme (recombinant full-length BTK, hBTK) (Q06187 whole entry): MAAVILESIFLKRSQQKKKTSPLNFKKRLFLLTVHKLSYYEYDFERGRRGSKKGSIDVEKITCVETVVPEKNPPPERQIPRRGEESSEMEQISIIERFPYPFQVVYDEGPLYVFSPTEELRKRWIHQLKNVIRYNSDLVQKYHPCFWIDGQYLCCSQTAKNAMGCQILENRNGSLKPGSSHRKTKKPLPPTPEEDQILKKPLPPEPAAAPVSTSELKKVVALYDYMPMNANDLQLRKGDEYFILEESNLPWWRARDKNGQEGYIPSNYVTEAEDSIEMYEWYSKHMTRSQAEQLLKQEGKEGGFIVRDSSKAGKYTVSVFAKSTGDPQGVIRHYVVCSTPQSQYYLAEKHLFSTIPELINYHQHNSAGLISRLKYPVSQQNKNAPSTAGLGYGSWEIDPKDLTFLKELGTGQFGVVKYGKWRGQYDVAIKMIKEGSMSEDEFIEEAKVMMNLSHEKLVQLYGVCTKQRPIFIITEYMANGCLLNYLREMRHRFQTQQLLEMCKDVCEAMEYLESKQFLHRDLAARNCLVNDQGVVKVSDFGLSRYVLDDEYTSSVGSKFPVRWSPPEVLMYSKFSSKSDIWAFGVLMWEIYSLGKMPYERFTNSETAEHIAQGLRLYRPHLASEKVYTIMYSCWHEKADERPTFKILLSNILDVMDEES
Protocol: Also BTK enzymatic activity was determined with the LANCE (Lanthanide Chelate Excite) TR-FRET (Time-resolved fluorescence resonance energy transfer) assay. […] Phosphorylation reactions were allowed to proceed for 120 minutes. […] After 60 minutes incubation with detection reagents, reaction plates were read on a PerkinElmer EnVision plate reader using standard TR-FRET protocol. Briefly, excitation of donor molecules (Eu-chelate:anti-phospho-antibody) with a laser light source at 337 nm produces energy that can be transferred to Dylight-650 acceptor molecules if this donor:acceptor pair is within close proximity. Fluorescence intensity at both 665 nm (acceptor) and 615 nm (donor) are measured and a TR-FRET ratio calculated for each well (acceptor intensity/donor intensity).
Btk Enzyme Activity Assay Method
BTK enzymatic activity was determined with the LANCE (Lanthanide Chelate Excite) TR-FRET (Time-resolved fluorescence resonance energy transfer) assay. […] Phosphorylation reactions were allowed to proceed for 120 minutes. […] After 60 minutes incubation with detection reagents, reaction plates were read on a PerkinElmer EnVision plate reader using standard TR-FRET protocol. Briefly, excitation of donor molecules (Eu-chelate:anti-phospho-antibody) with a laser light source at 337 nm produces energy that can be transferred to Dylight-650 acceptor molecules if this donor:acceptor pair is within close proximity. Fluorescence intensity at both 665 nm (acceptor) and 615 nm (donor) are measured and a TR-FRET ratio calculated for each well (acceptor intensity/donor intensity).

On to `CC1(C(=O)N2CCO[C@@H](c3nn(-c4ccc(C(=O)Nc5cc(C(F)(F)F)ccn5)cc4)c4c(N)nccc34)C2)COC1` [Example 1, (R)-4-(7-amino-3-(4-(3-methyloxetane-3-carbonyl)morpholin-2-yl)-1H-pyrazolo[3,4-c]pyridin-1-yl)-N-(4-(trifluoromethyl)pyridin-2-yl)benzamide], for which the pIC50 is 8.66.
Regarding `CC(=O)N1CCO[C@@H](c2nn(-c3ccc(C(=O)Nc4cc(C(F)(F)F)ccn4)cc3)c3c(N)nccc23)C1` [Example 2, 4-{3-[(2R)-4-acetylmorpholin-2-yl]-7-amino-1H-pyrazolo[3,4-c]pyridin-1-yl}-N-[4-(trifluoromethyl)pyridin-2-yl] benzamide], the negative-log IC50 (pIC50) was 8.54.
In the case of `CCC(=O)N1CCO[C@@H](c2nn(-c3ccc(C(=O)Nc4cc(C(F)(F)F)ccn4)cc3)c3c(N)nccc23)C1` [Example 3, 4-{7-amino-3-[(2R)-4-propanoylmorpholin-2-yl]-1H-pyrazolo[3,4-c]pyridin-1-yl}-N-[4-(trifluoromethyl)pyridin-2-yl] benzamide] it was 8.74; in that of `COCC(=O)Nc1nccc2c([C@H]3CN(C(=O)COC)CCO3)nn(-c3ccc(C(=O)Nc4cc(C(F)(F)F)ccn4)cc3)c12` [Example 4, 4-{7-[(methoxyacetyl)amino]-3-[(2R)-4-(methoxyacetyl)morpholin-2-yl]-1H-pyrazolo[3,4-c]pyridin-1-yl}-N-[4-(trifluoromethyl)pyridin-2-yl]benzamide], 7.33.
`COCC(=O)N1CCO[C@@H](c2nn(-c3ccc(C(=O)Nc4cc(C(F)(F)F)ccn4)cc3)c3c(N)nccc23)C1` [Example 5, 4-{7-amino-3-[(2R)-4-(methoxyacetyl)morpholin-2-yl]-1H-pyrazolo[3,4-c]pyridin-1-yl}-N-[4-(trifluoromethyl)pyridin-2-yl]benzamide]: the pIC50 is 8.43.
`COc1ccnc(NC(=O)c2ccc(-n3nc([C@H]4CN(C(C)=O)CCO4)c4ccnc(N)c43)cc2)c1` [Example 6, 4-{3-[(2R)-4-acetylmorpholin-2-yl]-7-amino-1H-pyrazolo[3,4-c]pyridin-1-yl}-N-(4-methoxypyridin-2-yl)benzamide]: the pIC50 is 7.54.
Consider `COCC(=O)N1CCO[C@@H](c2nn(-c3ccc(C(=O)Nc4cc(OC)ccn4)cc3)c3c(N)nccc23)C1` [Example 7, 4-{7-amino-3-[(2R)-4-(methoxyacetyl)morpholin-2-yl]-1H-pyrazolo[3,4-c]pyridin-1-yl}-N-(4-methoxypyridin-2-yl)benzamide], for which the pIC50 was 7.60.
In the case of `COc1ccnc(NC(=O)c2ccc(-n3nc([C@H]4CN(C(=O)C5(C)COC5)CCO4)c4ccnc(N)c43)cc2)c1` [Example 8, 4-(7-amino-3-{(2R)-4-[(3-methyloxetan-3-yl)carbonyl]morpholin-2-yl}-1H-pyrazolo[3,4-c]pyridin-1-yl)-N-(4-methoxypyridin-2-yl)benzamide] it was 7.38; in that of `CC1(C(=O)N2CCC[C@@H](c3nn(-c4ccc(C(=O)Nc5cc(C(F)(F)F)ccn5)cc4)c4c(N)nccc34)C2)COC1` [Example 9, (R)-4-(7-amino-3-(1-(3-methyloxetane-3-carbonyl)piperidin-3-yl)-1H-pyrazolo[3,4-c]pyridin-1-yl)-N-(4-(trifluoromethyl)pyridin-2-yl)benzamide], 9.33; in that of `Cc1n[nH]cc1C(=O)N1CCC[C@@H](c2nn(-c3ccc(C(=O)Nc4cc(C(F)(F)F)ccn4)cc3)c3c(N)nccc23)C1` [Example 10, 4-(7-amino-3-{(3R)-1-[(3-methyl-1H-pyrazol-4-yl)carbonyl]piperidin-3-yl}-1H-pyrazolo[3,4-c]pyridin-1-yl)-N-[4-(trifluoromethyl)pyridin-2-yl]benzamide], 9.15.
In the case of `CCC(=O)N1CCC[C@@H](c2nn(-c3ccc(C(=O)Nc4cc(C(F)(F)F)ccn4)cc3)c3c(N)nccc23)C1` [Example 11, 4-{7-amino-3-[(3R)-1-propanoylpiperidin-3-yl]-1H-pyrazolo[3,4-c]pyridin-1-yl}-N-[4-(trifluoromethyl)pyridin-2-yl]benzamide] it was 9.24; in that of `Nc1nccc2c([C@@H]3CCCN(C(=O)C4CC4(F)F)C3)nn(-c3ccc(C(=O)Nc4cc(C(F)(F)F)ccn4)cc3)c12` (stereo partly drawn) [Example 12, 4-(7-amino-3-{(3R)-1-[(2,2-difluorocyclopropyl)carbonyl]piperidin-3-yl}-1H-pyrazolo[3,4-c]pyridin-1-yl)-N-[4-(trifluoromethyl)pyridin-2-yl]benzamide], 8.52; in that of `Nc1nccc2c([C@@H]3CCCN(C(=O)c4cnon4)C3)nn(-c3ccc(C(=O)Nc4cc(C(F)(F)F)ccn4)cc3)c12` [Example 13, 4-{7-amino-3-[(3R)-1-(1,2,5-oxadiazol-3-ylcarbonyl)piperidin-3-yl]-1H-pyrazolo[3,4-c]pyridin-1-yl}-N-[4-(trifluoromethyl)pyridin-2-yl]benzamide], 8.33.
In the case of `Nc1nccc2c([C@@H]3CCCN(C(=O)CC4CCC4)C3)nn(-c3ccc(C(=O)Nc4cc(C(F)(F)F)ccn4)cc3)c12` [Example 14, 4-{7-amino-3-[(3R)-1-(cyclobutylacetyl)piperidin-3-yl]-1H-pyrazolo[3,4-c]pyridin-1-yl}-N-[4-(trifluoromethyl)pyridin-2-yl]benzamide] it was 8.46; in that of `Cc1noc(C)c1C(=O)N1CCC[C@@H](c2nn(-c3ccc(C(=O)Nc4cc(C(F)(F)F)ccn4)cc3)c3c(N)nccc23)C1` [Example 15, 4-(7-amino-3-{(3R)-1-[(3,5-dimethylisoxazol-4-yl)carbonyl]piperidin-3-yl}-1H-pyrazolo[3,4-c]pyridin-1-yl)-N-[4-(trifluoromethyl)pyridin-2-yl]benzamide], 8.28.
On to `COCCC(=O)N1CCC[C@@H](c2nn(-c3ccc(C(=O)Nc4cc(C(F)(F)F)ccn4)cc3)c3c(N)nccc23)C1` [Example 16, 4-{7-amino-3-[(3R)-1-(3-methoxypropanoyl)piperidin-3-yl]-1H-pyrazolo[3,4-c]pyridin-1-yl}-N-[4-(trifluoromethyl)pyridin-2-yl]benzamide], for which the pIC50 was 9.29.
Turning to `Nc1nccc2c([C@@H]3CCCN(C(=O)C4CC(F)(F)C4)C3)nn(-c3ccc(C(=O)Nc4cc(C(F)(F)F)ccn4)cc3)c12` [Example 17, 4-(7-amino-3-{(3R)-1-[(3,3-difluorocyclobutyl)carbonyl]piperidin-3-yl}-1H-pyrazolo[3,4-c]pyridin-1-yl)-N-[4-(trifluoromethyl)pyridin-2-yl]benzamide], the pIC50 is 8.60.
In the case of `COCC(=O)N1CCC[C@@H](c2nn(-c3ccc(C(=O)Nc4cc(C(F)(F)F)ccn4)cc3)c3c(N)nccc23)C1` [Example 18, 4-{7-amino-3-[(3R)-1-(methoxyacetyl)piperidin-3-yl]-1H-pyrazolo[3,4-c]pyridin-1-yl}-N-[4-(trifluoromethyl)pyridin-2-yl]benzamide], the negative logarithm of the IC50 (pIC50) was 9.05.
Consider `CC(C)C(=O)N1CCC[C@@H](c2nn(-c3ccc(C(=O)Nc4cc(C(F)(F)F)ccn4)cc3)c3c(N)nccc23)C1` [Example 19, 4-{7-amino-3-[(3R)-1-(2-methylpropanoyl)piperidin-3-yl]-1H-pyrazolo[3,4-c]pyridin-1-yl}-N-[4-(trifluoromethyl)pyridin-2-yl]benzamide], for which the pIC50 was 8.92.
In the case of `Nc1nccc2c([C@@H]3CCCN(C(=O)C4CCC4)C3)nn(-c3ccc(C(=O)Nc4cc(C(F)(F)F)ccn4)cc3)c12` [Example 20, 4-{7-amino-3-[(3R)-1-(cyclobutylcarbonyl)piperidin-3-yl]-1H-pyrazolo[3,4-c]pyridin-1-yl}-N-[4-(trifluoromethyl)pyridin-2-yl]benzamide] it was 8.80; in that of `CC(=O)N1CCC[C@@H](c2nn(-c3ccc(C(=O)Nc4cc(C(F)(F)F)ccn4)cc3)c3c(N)nccc23)C1` [Example 21, 4-{3-[(3R)-l-acetylpiperidin-3-yl]-7-amino-1H-pyrazolo[3,4-c]pyridin-1-yl}-N-[4-(trifluoromethyl)pyridin-2-yl]benzamide], 9.28; in that of `CCOCC(=O)N1CCC[C@@H](c2nn(-c3ccc(C(=O)Nc4cc(C(F)(F)F)ccn4)cc3)c3c(N)nccc23)C1` [Example 22, 4-{7-amino-3-[(3R)-1-(ethoxyacetyl)piperidin-3-yl]-1H-pyrazolo[3,4-c]pyridin-1-yl}-N-[4-(trifluoromethyl)pyridin-2-yl]benzamide], 8.92.
Regarding `COCCOCC(=O)N1CCC[C@@H](c2nn(-c3ccc(C(=O)Nc4cc(C(F)(F)F)ccn4)cc3)c3c(N)nccc23)C1` [Example 23, 4-(7-amino-3-{(3R)-1-[(2-methoxyethoxy)acetyl]piperidin-3-yl}-1H-pyrazolo[3,4-c]pyridin-1-yl)-N-[4-(trifluoromethyl)pyridin-2-yl]benzamide], the negative logarithm of the IC50 (pIC50) is 8.92.
As for `Nc1nccc2c([C@@H]3CCCN(C(=O)C4CC4)C3)nn(-c3ccc(C(=O)Nc4cc(C(F)(F)F)ccn4)cc3)c12` [Example 24, 4-{7-amino-3-[(3R)-1-(cyclopropylcarbonyl)piperidin-3-yl]-1H-pyrazolo[3,4-c]pyridin-1-yl}-N-[4-(trifluoromethyl)pyridin-2-yl]benzamide], the pIC50 was 9.07.
In the case of `Nc1nccc2c([C@@H]3CCCN(C(=O)C4(O)CC4)C3)nn(-c3ccc(C(=O)Nc4cc(C(F)(F)F)ccn4)cc3)c12` [Example 25, 4-(7-amino-3-{(3R)-1-[(1-hydroxycyclopropyl)carbonyl]piperidin-3-yl}-1H-pyrazolo[3,4-c]pyridin-1-yl)-N-[4-(trifluoromethyl)pyridin-2-yl]benzamide] it was 9.23; in that of `CC1(C(=O)N2CCC[C@@H](c3nn(-c4ccc(C(=O)Nc5cc(C(F)(F)F)ccn5)cc4)c4c(N)nccc34)C2)CC1` [Example 26, 4-(7-amino-3-{(3R)-1-[(1-methylcyclopropyl)carbonyl]piperidin-3-yl}-1H-pyrazolo[3,4-c]pyridin-1-yl)-N-[4-(trifluoromethyl)pyridin-2-yl]benzamide], 9.09.

(Values after patent US9834554B2, “BTK inhibitors” (MERCK SHARP & DOHME CORP., priority 2013, dated 2017).)
